Measurements taken from patent US20020032328A1, “Heterocyclic acylsulfimides, processes for their preparation, compositions comprising them and their use as pesticides” (priority 2000, published 2002).

Legend:
[1] = test system: black bean aphids (Aphis fabae); assay: Aphis fabae root-systemic test on field bean; assay type: in vivo; conditions: read-out: mortality among the aphids, by root-systemic action
[2] = test system: black bean aphids (Aphis fabae); assay: Aphis fabae dip test on field bean (plants and aphids dipped in preparation); assay type: in vivo; conditions: read-out: mortality among the aphids

SMILES | mortality at 30 ppm [1] | mortality at 300 ppm [2]
C/S(=N\C(=O)c1cnccc1C(F)(F)F)c1ccsc1 (stereo not shown) [Example 66] | 90 to 100% | 90 to 100%
CS(=O)(=NC(=O)c1cnccc1C(F)(F)F)c1ccc(Oc2cccc(F)c2C#N)cc1 (stereo not shown) [Example 718] | 90 to 100% | 90 to 100%
